For orientation: pIC50 means the IC50 on a negative log10 scale, so that one unit is a factor of ten. Read a low pIC50 as a large IC50.

For 17 compounds, IC50 results are on record in the Kinase Knowledgebase extract (Sharma et al. 2016).

Structures are written as SMILES. pIC50: −log10 of the molar value.

In this assay the target is PIK3CG (human) (UniProt P48736). Description: Assessment of PIK3CG Kinase Activity.
Sequence of PIK3CG (human) (P48736 whole entry, looked up): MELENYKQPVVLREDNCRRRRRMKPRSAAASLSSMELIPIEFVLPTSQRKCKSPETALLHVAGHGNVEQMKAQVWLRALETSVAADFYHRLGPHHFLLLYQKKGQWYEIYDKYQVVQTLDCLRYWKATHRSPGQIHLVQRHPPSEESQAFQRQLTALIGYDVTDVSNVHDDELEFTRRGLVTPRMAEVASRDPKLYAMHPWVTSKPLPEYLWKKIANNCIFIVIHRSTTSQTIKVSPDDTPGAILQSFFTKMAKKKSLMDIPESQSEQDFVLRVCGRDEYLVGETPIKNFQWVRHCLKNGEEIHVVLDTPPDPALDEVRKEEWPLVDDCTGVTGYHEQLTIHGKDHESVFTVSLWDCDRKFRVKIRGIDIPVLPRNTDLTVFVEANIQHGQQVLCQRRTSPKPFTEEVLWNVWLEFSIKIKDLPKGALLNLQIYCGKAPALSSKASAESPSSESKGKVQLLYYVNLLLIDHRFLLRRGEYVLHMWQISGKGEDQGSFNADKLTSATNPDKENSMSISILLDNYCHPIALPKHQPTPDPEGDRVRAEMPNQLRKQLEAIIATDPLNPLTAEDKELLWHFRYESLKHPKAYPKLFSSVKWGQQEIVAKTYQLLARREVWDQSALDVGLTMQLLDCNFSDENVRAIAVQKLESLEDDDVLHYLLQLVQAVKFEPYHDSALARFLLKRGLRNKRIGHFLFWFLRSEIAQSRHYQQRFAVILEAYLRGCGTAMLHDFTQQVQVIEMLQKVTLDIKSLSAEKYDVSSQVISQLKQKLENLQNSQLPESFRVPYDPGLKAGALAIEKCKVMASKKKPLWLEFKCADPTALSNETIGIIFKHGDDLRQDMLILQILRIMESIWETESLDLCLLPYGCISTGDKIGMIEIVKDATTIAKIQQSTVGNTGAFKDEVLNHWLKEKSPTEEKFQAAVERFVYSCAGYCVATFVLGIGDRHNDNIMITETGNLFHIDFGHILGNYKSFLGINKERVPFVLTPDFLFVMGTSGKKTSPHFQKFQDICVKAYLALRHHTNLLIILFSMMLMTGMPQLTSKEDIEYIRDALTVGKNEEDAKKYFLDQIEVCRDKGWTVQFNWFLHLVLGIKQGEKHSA
Turning to `COc1cc2c(Oc3ccc(C(=O)c4ccccc4)cc3)c(C(=O)Nc3nn[nH]n3)sc2cc1C`, the pIC50 is 7.57.

For the compound `COc1cc2sc(C(=O)Nc3nn[nH]n3)c(Oc3cccc(C(=N)N)c3)c2cc1C`, the pIC50 was 6.41. To `COc1cc2c(Oc3ccc(C(C)(C)C)c(C(C)(C)C)c3)c(C(=O)Nc3nn[nH]n3)sc2cc1C` belongs 5.63; to `COc1cc2sc(C(=O)Nc3nnn[nH]3)c(Oc3ccc(CCCSC4CCCCC4)cc3)c2cc1C`, 6.62.

`COc1cc2c(Oc3ccc(C(C4CCCCC4)N4CCCCC4)cc3)c(C(=O)Nc3nn[nH]n3)sc2cc1C` (configuration not stated) showed a pIC50 of 6.15. Turning to `COc1cc2c(Oc3ccc(C(O)c4ccccc4)cc3)c(C(=O)Nc3nn[nH]n3)sc2cc1C` (configuration not stated), the pIC50 was 8.10. Under `COc1cc2c(Oc3ccc(C4CCOCC4)cc3)c(C(=O)Nc3nn[nH]n3)sc2cc1C` stands 8.05; under `COc1cc2c(Oc3ccc(C4CCN(C(C)=O)CC4)cc3)c(C(=O)Nc3nn[nH]n3)sc2cc1C`, 7.85; under `COc1cc2sc(C(=O)Nc3nnn[nH]3)c(OCc3ccc4ccccc4c3)c2cc1OC`, 6.68. Consider `COc1cc2sc(C(=O)Nc3nnn[nH]3)c(Oc3ccc(CCCSc4ccc(Cl)cc4)cc3)c2cc1C`, for which the pIC50 was 5.58. Under `COc1cc2c(Oc3ccc(C4CCN(C(=O)C(C)C)CC4)cc3)c(C(=O)Nc3nn[nH]n3)sc2cc1C` stands 7.96. For `COc1cc2c(Oc3ccc(C4CCCC(O)C4)cc3)c(C(=O)Nc3nn[nH]n3)sc2cc1C` (configuration not stated), the pIC50 was 8.10. This pIC50 and that of the compound before are within 0.2 log units of each other.

With `COc1cc2c(Oc3ccc(C4CCNCC4)cc3)c(C(=O)Nc3nn[nH]n3)sc2cc1C`, the pIC50 is 6.44. Under `COc1cc2c(Oc3ccc(C4CC(C)(C)CC(C)(C)C4)cc3)c(C(=O)Nc3nn[nH]n3)sc2cc1C` stands 6.49; under `COc1cc2c(Oc3ccc(C4CCSCC4)cc3)c(C(=O)Nc3nn[nH]n3)sc2cc1C`, 8.10. To `COc1cc2c(Oc3ccc(C4CCN(C(=O)C(C)(C)NC(=O)OC(C)(C)C)CC4)cc3)c(C(=O)Nc3nn[nH]n3)sc2cc1C` belongs 7.70; to `COc1cc2c(OC[C@H](C)c3ccccc3)c(C(=O)Nc3nn[nH]n3)sc2cc1C`, 7.25.
